How the values were obtained:
Format in all cases: in vivo
Spodoptera littoralis = test: Activity against Spodoptera littoralis (Egyptian cotton leaf worm), cotton leaf discs, L1 larvae; conditions: foliar, 72 h, application rate 200 ppm, 3 days after infestation, vs untreated, read-out: control in at least one of the three categories (mortality, anti-feedant effect, or growth inhibition)
Method: Example B8: Activity Against Spodoptera littoralis (Egyptian Cotton Leaf Worm)
Cotton leaf discs were placed onto agar in 24-well microtiter plates and sprayed with aqueous test solutions prepared from 10′000 ppm DMSO stock solutions. After drying the leaf discs were infested with five L1 larvae. The samples were assessed for mortality, anti-feeding effect, and growth inhibition in comparison to untreated samples 3 days after infestation. Control of Spodoptera littoralis by a test sample is given when at least one of the categories mortality, anti-feedant effect, and growth inhibition is higher than the untreated sample.

Diabrotica balteata = test: Activity against Diabrotica balteata (corn root worm), maize sprouts, L2 larvae; conditions: 96 h, application rate 200 ppm, 4 days after infestation, vs untreated, read-out: control in at least one of the two categories (mortality or growth inhibition)
Method: Example B2: Activity Against Diabrotica balteata (Corn Root Worm)
Maize sprouts placed onto an agar layer in 24-well microtiter plates were treated with aqueous test solutions prepared from 10′000 ppm DMSO stock solutions by spraying. After drying, the plates were infested with L2 larvae (6 to 10 per well). The samples were assessed for mortality and growth inhibition in comparison to untreated samples 4 days after infestation.

Myzus persicae [1] = test: Activity against Myzus persicae (green peach aphid), intrinsic activity; conditions: 120 h, test rate 12 ppm, 5 days after infestation, sucrose solution through Parafilm
Text: Example B6: Activity Against Myzus persicae (Green Peach Aphid). Intrinsic Activity
Test compounds prepared from 10′000 ppm DMSO stock solutions were applied by pipette into 24-well microtiter plates and mixed with sucrose solution. The plates were closed with a stretched Parafilm. A plastic stencil with 24 holes was placed onto the plate and infested pea seedlings were placed directly on the Parafilm. The infested plate was closed with a gel blotting paper and another plastic stencil and then turned upside down. The samples were assessed for mortality 5 days after infestation.

Plutella xylostella = test: Activity against Plutella xylostella (diamond back moth), artificial diet, eggs; conditions: 192 h, application rate 200 ppm, 8 days after infestation, vs untreated, read-out: control in at least one of the two categories (mortality or growth inhibition)
Method: Example B7: Activity Against Plutella xylostella (Diamond Back Moth)
24-well microtiter plates with artificial diet were treated with aqueous test solutions prepared from 10′000 ppm DMSO stock solutions by pipetting. After drying, Plutella eggs were pipetted through a plastic stencil onto a gel blotting paper and the plate was closed with it. The samples were assessed for mortality and growth inhibition in comparison to untreated samples 8 days after infestation. The following compounds gave an effect of at least 80% control in at least one of the two categories (mortality or growth inhibition) at an application rate of 200 ppm: P1, P2, P3, P4, P6, P7, P8, P9, P10, P11, P12, P13, P14, P15, P16, P17, P18, P19, P20, P21, P22, P23, P24, P25, P26, P27.

Myzus persicae [2] = test: Activity against Myzus persicae (green peach aphid), feeding/contact activity; conditions: foliar, 144 h, application rate 200 ppm, 6 days after infestation, sunflower leaf discs, mixed ages
Method: Example B5: Activity Against Myzus persicae (Green Peach Aphid). Feeding/Contact Activity
Sunflower leaf discs were placed onto agar in a 24-well microtiter plate and sprayed with aqueous test solutions prepared from 10′000 ppm DMSO stock solutions. After drying, the leaf discs were infested with an aphid population of mixed ages. The samples were assessed for mortality 6 days after infestation.

Euschistus heros = test: Activity against Euschistus heros (neotropical brown stink bug), soybean leaves, N2 nymphs; conditions: 120 h, application rate 200 ppm, 5 days after infestation, vs untreated, read-out: effect in at least one of the two categories (mortality or growth inhibition)
Method: Example B3: Activity Against Euschistus heros (Neotropical Brown Stink Bug)
Soybean leaves on agar in 24-well microtiter plates were sprayed with aqueous test solutions prepared from 10′000 ppm DMSO stock solutions. After drying the leaves were infested with N2 nymphs. The samples were assessed for mortality and growth inhibition in comparison to untreated samples 5 days after infestation.

Chilo suppressalis = test: Activity against Chilo suppressalis (striped rice stemborer), artificial diet, L2 larvae; conditions: 144 h, application rate 200 ppm, 6 days after infestation, vs untreated, read-out: control in at least one of the three categories (mortality, anti-feedant effect, or growth inhibition)
Method: Example B1: Activity Against Chilo suppressalis (Striped Rice Stemborer)
24-well microtiter plates with artificial diet were treated with aqueous test solutions prepared from 10′000 ppm DMSO stock solutions by pipetting. After drying, the plates were infested with L2 larvae (6-8 per well). The samples were assessed for mortality, anti-feeding effect, and growth inhibition in comparison to untreated samples 6 days after infestation. Control of Chilo suppressalis by a test sample is given when at least one of the categories mortality, anti-feedant effect, and growth inhibition is higher than the untreated sample.

CC(c1nccnc1-c1ccc(=O)n(C)n1)N(C)c1ncnc2c(C(F)(F)F)cc(Cl)cc12 (racemic) [P21, 6-[3-[1-[[6-chloro-8-(trifluoromethyl)quinazolin-4-yl]-methyl-amino]ethyl]pyrazin-2-yl]-2-methyl-pyridazin-3-one]
≥ 80%: percent control (mortality, anti-feedant effect or growth inhibition) at 200 ppm (Spodoptera littoralis) | percent control (mortality or growth inhibition) at 200 ppm (Diabrotica balteata) | mortality at 12 ppm (Myzus persicae [1]) | percent control (mortality or growth inhibition) at 200 ppm (Plutella xylostella) | mortality at 200 ppm (Myzus persicae [2]) | percent effect (mortality or growth inhibition) at 200 ppm (Euschistus heros) | percent control (mortality, anti-feedant effect or growth inhibition) at 200 ppm (Chilo suppressalis)

C[C@H](Nc1ncnc2c(C(F)(F)F)cc(Cl)cc12)c1ncnn1-c1ccc(=O)n(C)n1 [P2, 6-[5-[(1S)-1-[[6-chloro-8-(trifluoromethyl)quinazolin-4-yl]amino]ethyl]-1,2,4-triazol-1-yl]-2-methyl-pyridazin-3-one]
≥ 80%: percent control (mortality, anti-feedant effect or growth inhibition) at 200 ppm (Spodoptera littoralis) | percent control (mortality or growth inhibition) at 200 ppm (Diabrotica balteata) | percent control (mortality or growth inhibition) at 200 ppm (Plutella xylostella) | mortality at 200 ppm (Myzus persicae [2]) | percent effect (mortality or growth inhibition) at 200 ppm (Euschistus heros) | percent control (mortality, anti-feedant effect or growth inhibition) at 200 ppm (Chilo suppressalis)

C[C@H](Nc1ncnc2c(C(F)(F)F)cc(C(F)(F)F)cc12)c1ncnn1-c1ccc(=O)n(C)n1 [P3, 6-[5-[(1S)-1-[[6,8-bis(trifluoromethyl)quinazolin-4-yl]amino]ethyl]-1,2,4-triazol-1-yl]-2-methyl-pyridazin-3-one]
≥ 80%: percent control (mortality, anti-feedant effect or growth inhibition) at 200 ppm (Spodoptera littoralis) | percent control (mortality or growth inhibition) at 200 ppm (Diabrotica balteata) | mortality at 12 ppm (Myzus persicae [1]) | percent control (mortality or growth inhibition) at 200 ppm (Plutella xylostella) | mortality at 200 ppm (Myzus persicae [2]) | percent effect (mortality or growth inhibition) at 200 ppm (Euschistus heros) | percent control (mortality, anti-feedant effect or growth inhibition) at 200 ppm (Chilo suppressalis)

C[C@H](Nc1nc(Cl)nc2c(Cl)cc(C(F)(F)F)cc12)c1ncnn1-c1ccc(=O)n(C)n1 [P4, 6-[5-[(1S)-1-[[2,8-dichloro-6-(trifluoromethyl)quinazolin-4-yl]amino]ethyl]-1,2,4-triazol-1-yl]-2-methyl-pyridazin-3-one]
≥ 80%: percent control (mortality or growth inhibition) at 200 ppm (Diabrotica balteata) | percent control (mortality or growth inhibition) at 200 ppm (Plutella xylostella) | mortality at 200 ppm (Myzus persicae [2]) | percent control (mortality, anti-feedant effect or growth inhibition) at 200 ppm (Chilo suppressalis)

C[C@H](Nc1ncnc2c(C(F)(F)F)cc(C(F)(F)F)cc12)c1ncnn1C1=NN(C)C(=O)CC1 [P7, 6-[5-[(1S)-1-[[6,8-bis(trifluoromethyl)quinazolin-4-yl]amino]ethyl]-1,2,4-triazol-1-yl]-2-methyl-4,5-dihydropyridazin-3-one]
≥ 80%: percent control (mortality, anti-feedant effect or growth inhibition) at 200 ppm (Spodoptera littoralis) | percent control (mortality or growth inhibition) at 200 ppm (Diabrotica balteata) | mortality at 12 ppm (Myzus persicae [1]) | percent control (mortality or growth inhibition) at 200 ppm (Plutella xylostella) | mortality at 200 ppm (Myzus persicae [2]) | percent effect (mortality or growth inhibition) at 200 ppm (Euschistus heros) | percent control (mortality, anti-feedant effect or growth inhibition) at 200 ppm (Chilo suppressalis)

CC(Nc1ncnc2c(C(F)(F)F)cc(C(F)(F)F)cc12)c1nccnc1-c1ccc(=O)n(C)n1 (stereo not shown) [P8, 6-[3-[1-[[6,8-bis-(trifluoromethyl)-quinazolin-4-yl]amino]ethyl]pyr-azin-2-yl]-2-meth-yl-pyridazin-3-one]
≥ 80%: percent control (mortality, anti-feedant effect or growth inhibition) at 200 ppm (Spodoptera littoralis) | percent control (mortality or growth inhibition) at 200 ppm (Diabrotica balteata) | mortality at 12 ppm (Myzus persicae [1]) | percent control (mortality or growth inhibition) at 200 ppm (Plutella xylostella) | mortality at 200 ppm (Myzus persicae [2]) | percent effect (mortality or growth inhibition) at 200 ppm (Euschistus heros) | percent control (mortality, anti-feedant effect or growth inhibition) at 200 ppm (Chilo suppressalis)

C[C@H](Nc1ncnc2c(C(F)(F)F)cc(Cl)cc12)c1ncnn1C1=NN(C)C(=O)CC1 [P9, 6-[5-[(1S)-1-[[6-chloro-8-(trifluoro-methyl)quinazolin-4-yl]amino]ethyl]-1,2,4-triazol-1-yl]-2-methyl-4,5-di-hydropyridazin-3-one]
≥ 80%: percent control (mortality, anti-feedant effect or growth inhibition) at 200 ppm (Spodoptera littoralis) | percent control (mortality or growth inhibition) at 200 ppm (Diabrotica balteata) | mortality at 12 ppm (Myzus persicae [1]) | percent control (mortality or growth inhibition) at 200 ppm (Plutella xylostella) | mortality at 200 ppm (Myzus persicae [2]) | percent effect (mortality or growth inhibition) at 200 ppm (Euschistus heros) | percent control (mortality, anti-feedant effect or growth inhibition) at 200 ppm (Chilo suppressalis)

CC(Nc1ncnc2c(C(F)(F)F)cc(Cl)cc12)c1nccnc1-c1ccc(=O)n(C)n1 (stereo not shown) [P10, 6-[3-[1-[[6-chloro-8-(trifluorometh-yl)quinazolin-4-yl]amino]ethyl]pyr-azin-2-yl]-2-methyl-pyridazin-3-one]
≥ 80%: percent control (mortality, anti-feedant effect or growth inhibition) at 200 ppm (Spodoptera littoralis) | percent control (mortality or growth inhibition) at 200 ppm (Diabrotica balteata) | mortality at 12 ppm (Myzus persicae [1]) | percent control (mortality or growth inhibition) at 200 ppm (Plutella xylostella) | mortality at 200 ppm (Myzus persicae [2]) | percent effect (mortality or growth inhibition) at 200 ppm (Euschistus heros) | percent control (mortality, anti-feedant effect or growth inhibition) at 200 ppm (Chilo suppressalis)

CC(c1nccnc1-c1ccc(=O)n(C)n1)N(C)c1ncnc2c(Cl)cc(C(F)(F)F)cc12 (stereo not shown) [P12, 6-[3-[1-[[8-chloro-6-(trifluoromethyl)quinazolin-4-yl]-methyl-amino]ethyl]pyrazin-2-yl]-2-methyl-pyridazin-3-one]
≥ 80%: percent control (mortality, anti-feedant effect or growth inhibition) at 200 ppm (Spodoptera littoralis) | percent control (mortality or growth inhibition) at 200 ppm (Diabrotica balteata) | mortality at 12 ppm (Myzus persicae [1]) | percent control (mortality or growth inhibition) at 200 ppm (Plutella xylostella) | mortality at 200 ppm (Myzus persicae [2]) | percent effect (mortality or growth inhibition) at 200 ppm (Euschistus heros) | percent control (mortality, anti-feedant effect or growth inhibition) at 200 ppm (Chilo suppressalis)

C[C@@H](c1ncnn1-c1ccc(=O)n(C)n1)N(C)c1ncnc2c(Br)cc(Br)cc12 [P14, 6-[5-[(1S)-1-[(6,8-dibromoquinazolin-4-yl)-methyl-amino]ethyl]-1,2,4-triazol-1-yl]-2-methyl-pyridazin-3-one]
≥ 80%: percent control (mortality, anti-feedant effect or growth inhibition) at 200 ppm (Spodoptera littoralis) | percent control (mortality or growth inhibition) at 200 ppm (Diabrotica balteata) | mortality at 12 ppm (Myzus persicae [1]) | percent control (mortality or growth inhibition) at 200 ppm (Plutella xylostella) | mortality at 200 ppm (Myzus persicae [2]) | percent effect (mortality or growth inhibition) at 200 ppm (Euschistus heros)

C[C@H](Nc1ncnc2c(Cl)cc(I)cc12)c1ncnn1-c1ccc(=O)n(C)n1 [P20, 6-[5-[(1S)-1-[(8-chloro-6-iodo-quinazolin-4-yl)-amino]ethyl]-1,2,4-triazol-1-yl]-2-methyl-pyridazin-3-one]
≥ 80%: percent control (mortality or growth inhibition) at 200 ppm (Plutella xylostella) | mortality at 200 ppm (Myzus persicae [2])

From US20250049033A1, “PESTICIDALLY ACTIVE PYRIDAZINONE COMPOUNDS” (SYNGENTA CROP PROTECTION AG, priority 2021, published 2025)
